Data published in patent US4992417A (Mount Sinai School of Medicine, priority 1988, dated 1991).
Values belong to the substance of their own block, whether it stands above or below them.

How the values were obtained:
rat adipocytes = assay: Lipogenesis assay (conversion of [3-3H] glucose into lipids); format: cell-based; conditions: isolated rat adipocytes
Description: Adipocytes were prepared by incubating epididymal and perirenal fat pads obtained from male rats weighing 200-300 g with 1.0 mg/ml collagenase for 60 min at 37° C., followed by filtration through gauze and then through fine-mesh silk. Cells were washed twice by flotation in a clinical centrifuge before suspension for use. The incubation medium was Krebs-Ringer bicarbonate containing half the recommended calcium, 0.5 mM glucose, and 3% fatty acid free bovine serum albumin, with 95% O2 -5% CO2 as the gas phase. […] Cells were preincubated for 45 min at 37° C. before the addition of [3-^3 H] glucose. Incubation was continued for 60 min and stopped by the addition of 0.2 ml of 5N H2 SO4 and 0.2 ml of corn oil to aid in the extraction of lipids. Samples were extracted with 10 ml of Soluscint-0® for 30 min at room temperature before counting the radioactivity in a scintillation counter. Under these conditions, [3-^3 H] glucose was not extracted into the organic phase containing the scintillation fluors and was essentially uncounted.
Stimulation, expressed as per cent of maximum, was plotted as a function of the agonist concentration. The data points represent the mean of triplicate determinations in representative assays performed four times. […]
Stimulation, expressed as per cent of maximum, was plotted as a function of the agonist concentration. […]

[1] = tested on: Guinea pig antiserum to porcine insulin; assay: Insulin radioimmunoassay; format: binding; conditions: competition with 125I-insulin for anti-insulin antiserum; ratio of slopes
Description: After incubation at room temperature overnight, 0.2 ml of the precipitating antibody (goat anti-guinea pig-γ globulin) was added, and the tubes were further incubated overnight at room temperature. Immune precipitates were collected on cellulose-acetate filters and washed with two successive 1.0 mL portions of ice-cold assay buffer. Filters were dried and radioactivity was counted in a scintillation counter in Filtron-X®.

[2] = molecular target: T1, insulin receptors in rat liver plasma membranes (Rattus norvegicus, UniProt P15127); assay: Insulin receptor binding assay (competition with 125I-insulin)
T1 construct: Rat liver plasma membranes were prepared as described by Horvat et al; from tissue; host or cells: rat liver plasma membranes
T1 sequence (P15127 27-759 limits assumed): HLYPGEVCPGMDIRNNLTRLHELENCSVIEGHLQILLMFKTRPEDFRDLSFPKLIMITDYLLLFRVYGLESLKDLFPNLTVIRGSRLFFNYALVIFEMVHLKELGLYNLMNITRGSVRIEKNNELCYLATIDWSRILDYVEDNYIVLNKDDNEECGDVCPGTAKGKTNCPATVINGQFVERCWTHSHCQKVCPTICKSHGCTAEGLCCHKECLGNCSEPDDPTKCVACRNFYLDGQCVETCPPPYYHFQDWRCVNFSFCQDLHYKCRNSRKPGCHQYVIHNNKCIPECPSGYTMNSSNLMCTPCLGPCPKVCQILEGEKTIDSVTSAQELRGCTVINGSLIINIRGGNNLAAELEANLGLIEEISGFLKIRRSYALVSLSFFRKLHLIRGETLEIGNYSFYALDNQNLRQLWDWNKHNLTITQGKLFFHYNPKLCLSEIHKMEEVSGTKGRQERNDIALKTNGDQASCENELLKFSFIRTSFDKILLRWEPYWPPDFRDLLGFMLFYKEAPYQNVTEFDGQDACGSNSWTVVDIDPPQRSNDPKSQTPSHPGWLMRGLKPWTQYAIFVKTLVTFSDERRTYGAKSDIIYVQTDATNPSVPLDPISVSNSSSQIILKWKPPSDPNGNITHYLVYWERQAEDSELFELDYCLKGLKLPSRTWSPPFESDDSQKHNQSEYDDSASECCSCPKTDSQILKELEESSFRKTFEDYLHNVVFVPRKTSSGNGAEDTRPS
Description: Following incubation for 45 min at 24° C., the mixtures were diluted with 2.0 ml of ice cold 0.1M sodium phosphate, pH 7.4, containing 0.1% fraction V bovine serum albumin and immediately filtered through cellulose-acetate filters. The filters were washed twice with the ice cold buffer, dried, and then radioactivity was counted in a scintillation counter using Filtron-X®.
Inhibition of binding, expressed as per cent of maximum, was plotted as a function of competitor concentration. […] The maximum binding in these assays amounted to 8.2% of the input radioactivity.
Inhibition of binding, expressed as per cent of maximum, was plotted as a function of competitor concentration.

insulin receptor = insulin receptor (Homo sapiens, UniProt P06213); conditions: cited from earlier work; for potency compared with natural insulin: literature

potency relative to bovine insulin (concentration ratio required to inhibit 50% of the specific binding of 125I-insulin) ([2]; rat liver plasma membranes, 45 min at 24° C., pH 7.4, assay performed four times): about 534±146%
binding to the insulin receptor, times more tightly than natural insulins ([2]; relative to natural insulins): about five times more tightly
Substance: [10-Aspartic acid-B] human insulin
maximum stimulation of lipogenesis compared with bovine insulin (rat adipocytes): full agonist
relative potency (concentration ratio required to produce 50% of the maximum stimulation of lipogenesis) relative to bovine insulin (rat adipocytes; [3-3H] glucose, 60 min, assays performed four times): 435±144%
potency in radioimmunoassay relative to bovine insulin [1]: approximately equal potency

Substance: [Asn^B10 ]- insulin
potency compared with natural insulin (insulin receptor): reduced potency

Substance: [Leu^B10 ]- insulin
potency compared with natural insulin (insulin receptor): reduced potency

Substance: [Lys^B10 ] insulin
potency compared with natural insulin (insulin receptor): reduced potency

Substance: des-pentapeptide(B26-B30)-[Phe^B25 -α-carboxamide]insulin
potency compared with natural insulin (insulin receptor): comparable potency

Substance: des-pentapeptide(B26-B30)-[Tyr^B25 -α-carboxamide]insulin
potency greater than insulin (insulin receptor; literature (Nakagawa et al.; Casareto et al.)): 270-300%
